# Experimental data published in patent US7384931B2, “Constrained compounds as CGRP-receptor antagonists” (Bristol-Myers Squibb Company, priority 2004, dated 2008).
# Assays:
# [1] = biological target: T1, CGRP receptor (Homo sapiens, UniProt O60894+Q16602); test: Cyclic AMP functional antagonism assay in SK-N-MC cells; format: cell-based; set-up: SK—N-MC cells that endogenously express the human CGRP receptor; endogenous in cells; host or cells: SK-N-MC cells; details: inhibition of 0.3 nM CGRP-induced cyclic AMP formation, 15 min pre-incubation, read-out: cAMP Function IC50
# T1 sequence (Q16602 23-461): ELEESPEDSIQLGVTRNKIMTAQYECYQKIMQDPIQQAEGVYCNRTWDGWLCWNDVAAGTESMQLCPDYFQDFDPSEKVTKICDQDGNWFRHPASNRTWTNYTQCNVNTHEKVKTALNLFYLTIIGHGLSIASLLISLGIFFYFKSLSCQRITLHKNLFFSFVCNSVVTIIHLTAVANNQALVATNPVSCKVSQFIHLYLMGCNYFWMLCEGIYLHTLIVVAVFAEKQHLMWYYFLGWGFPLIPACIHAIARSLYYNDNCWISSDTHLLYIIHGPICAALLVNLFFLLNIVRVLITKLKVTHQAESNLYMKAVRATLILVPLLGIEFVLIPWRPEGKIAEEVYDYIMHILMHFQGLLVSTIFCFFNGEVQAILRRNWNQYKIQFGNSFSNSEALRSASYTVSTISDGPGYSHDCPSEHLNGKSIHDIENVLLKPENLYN
# T1 sequence (O60894 27-148): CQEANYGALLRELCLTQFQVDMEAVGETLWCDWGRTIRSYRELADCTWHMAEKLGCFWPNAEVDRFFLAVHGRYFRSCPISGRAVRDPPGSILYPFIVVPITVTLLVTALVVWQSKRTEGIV
# Protocol: Cyclic AMP Functional Antagonism Assay. Antagonism of the compounds of invention was determined by measuring the formation of cyclic AMP (adenosine 3′5′-cyclic monophosphate) in SK—N-MC cells that endogenously express the human CGRP receptor. CGRP receptor complex is coupled with Gs protein and CGRP binding to this complex leads to the cyclic AMP production via Gs—dependent activation of an adenylate cyclase (Juaneda C et al., TiPS, 2000; 21:432-438; incorporated by reference herein). Consequently, CGRP receptor antagonists inhibit CGRP—induced cyclic AMP formation in SK—N-MC cells (Doods H et al., Br J Pharmacol, 2000; 129(3):420-423); incorporated by reference herein). For cyclic AMP measurements SK—N-MC cells were incubated with 0.3 nM CGRP alone or in the presence of various concentrations of the compounds of invention for 30 min at room temperature. Compounds of invention were pre-incubated with SK—N-MC cells for 15 min before the addition of CGRP to allow receptor occupancy (Edvinsson et al., Eur J Pharmacol, 2001, 415:39-44; incorporated by reference herein). Cyclic AMP was extracted using the lysis reagent and its concentration was determined by radioimmunoassay using RPA559 cAMP SPA Direct Screening Assay Kit (Amersham Pharmacia Biotech). IC50 values were calculated using Excel fit.
# [2] = biological target: T1, CGRP receptor; test: CGRP radioligand binding assay ([125I]-CGRP displacement, SK-N-MC homogenate); set-up: endogenous in cells; host or cells: SK-N-MC cells (homogenate/membrane pellet); details: displacement of [125I]-CGRP, room temperature 2 h
# In short: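 SK-N-MC cell homogenate (5 μg/well) was incubated 2 h at room temperature with [125I]-CGRP (diluted to 60 pM before addition) in 50 mM Tris-Cl pH 7.5, 5 mM MgCl2, 0.005% Triton X-100 plus protease inhibitors. Bound radioactivity was collected by filtration; 1 μM beta-CGRP defined non-specific binding. IC50 is 50% radioligand displacement.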
Molecule,IC50 [1],IC50 [2]
"O=C(N[C@@H]1Cc2ccc3[nH]ncc3c2CN(Cc2ccccc2)C1=O)N1CCC(N2Cc3ccccc3NC2=O)CC1 [Example 1, 4-(2-Oxo-1,4-dihydro-2H-quinazolin-3-yl)-piperidine-1-carboxylic acid (9-benzyl-8-oxo-3,6,7,8,9,10-hexahydro-2,3,9-triaza-(R)-cyclohepta[e]inden-7-yl)-amide]",10 to 100 nM,10 to 100 nM
"CC(C)(C)CN1C(=O)C(CC(=O)N2CCC(N3Cc4ccccc4NC3=O)CC2)Cc2cc3[nH]ncc3cc21 (stereo not drawn) [Example 6, 5-Neopentyl-7-(2-oxo-2-(4-(2-oxo-1,2-dihydroquinazolin-3(4H)-yl)piperidin-1-yl)ethyl)-7,8-dihydro-1H-pyrazolo[3,4-g]quinolin-6(5H)-one]",10 to 100 nM,10 to 100 nM
"C[C@@H](c1ccccc1)N1Cc2c(ccc3[nH]ncc23)C[C@@H](NC(=O)N2CCC(N3Cc4ccccc4NC3=O)CC2)C1=O [Example 10, 4-(2-Oxo-1,4-dihydro-2H-quinazolin-3-yl)-piperidine-1-carboxylic acid [8-oxo-9-(1-(S)-phenyl-ethyl)-3,6,7,8,9,10-hexahydro-2,3,9-triaza-(R)-cyclohepta[e]inden-7-yl]-amide]",10 to 100 nM,10 to 100 nM
"C[C@H](c1ccccc1)N1Cc2c(ccc3[nH]ncc23)C[C@@H](NC(=O)N2CCC(N3Cc4ccccc4NC3=O)CC2)C1=O [Example 11, 4-(2-Oxo-1,4-dihydro-2H-quinazolin-3-yl)-piperidine-1-carboxylic acid [8-oxo-9-(1-(R)-phenyl-ethyl)-3,6,7,8,9,10-hexahydro-2,3,9-triaza-(R)-cyclohepta[e]inden-7-yl]-amide]",10 to 100 nM,10 to 100 nM
"O=C(N[C@@H]1Cc2cc(Cl)c3[nH]ncc3c2CN(Cc2ccccc2)C1=O)N1CCC(N2Cc3ccccc3NC2=O)CC1 [Example 12, 4-(2-Oxo-1,4-dihydro-2H-quinazolin-3-yl)-piperidine-1-carboxylic acid (9-benzyl-4-chloro-8-oxo-3,6,7,8,9,10-hexahydro-2,3,9-triaza-(R)-cyclohepta[e]inden-7-yl)-amide]",0.1 to 10 nM,0.1 to 10 nM
"CC(C)(C)CCN1Cc2c(ccc3[nH]ncc23)C[C@@H](NC(=O)N2CCC(N3Cc4ccccc4NC3=O)CC2)C1=O [Example 16, 4-(2-Oxo-1,4-dihydro-2H-quinazolin-3-yl)-piperidine-1-carboxylic acid [9-(3,3-dimethyl-butyl)-8-oxo-3,6,7,8,9,10-hexahydro-2,3,9-triaza-(R)-cyclohepta[e]inden-7-yl]-amide]",0.1 to 10 nM,0.1 to 10 nM
"CC(C)(C)CN1Cc2c(cc(Cl)c3[nH]ncc23)C[C@@H](NC(=O)N2CCC(N3Cc4ccccc4NC3=O)CC2)C1=O [Example 20, 4-(2-Oxo-1,4-dihydro-2H-quinazolin-3-yl)-piperidine-1-carboxylic acid [4-chloro-9-(2,2-dimethyl-propyl)-8-oxo-3,6,7,8,9,10-hexahydro-2,3,9-triaza-(R)-cyclohepta[e]inden-7-yl]-amide]",0.1 to 10 nM,0.1 to 10 nM
"CC(C)(C)CN1Cc2c(cc(Cl)c3[nH]ncc23)C[C@@H](CC(=O)N2CCC(N3Cc4ccccc4NC3=O)CC2)C1=O [Example 21, 4-Chloro-9-(2,2-dimethyl-propyl)-7-(S)-{2-oxo-2-[4-(2-oxo-1,4-dihydro-2H-quinazolin-3-yl)-piperidin-1-yl]-ethyl}-6,7,9,10-tetrahydro-3H-2,3,9-triaza-cyclohepta[e]inden-8-one]",0.1 to 10 nM,0.1 to 10 nM
"CC(C)(C)CN1Cc2c(ccc3[nH]ncc23)CC(NC(=O)N2CCC(N3Cc4ccccc4NC3=O)CC2)C1=O (stereo not drawn) [Example 22, 4-(2-Oxo-1,4-dihydro-2H-quinazolin-3-yl)-piperidine-1-carboxylic acid [9-(2,2-dimethyl-propyl)-8-oxo-3,6,7,8,9,10-hexahydro-2,3,9-triaza-cyclohepta[e]inden-7-yl]-amide]",0.1 to 10 nM,0.1 to 10 nM
"CC(C)CN1Cc2c(ccc3[nH]ncc23)CC(NC(=O)N2CCC(N3Cc4ccccc4NC3=O)CC2)C1=O (stereo not drawn) [Example 24, 4-(2-Oxo-1,4-dihydro-2H-quinazolin-3-yl)-piperidine-1-carboxylic acid (9-isobutyl-8-oxo-3,6,7,8,9,10-hexahydro-2,3,9-triaza-cyclohepta[e]inden-7-yl)-amide]",10 to 100 nM,10 to 100 nM
"O=C(NC1Cc2ccc3[nH]ncc3c2CN(Cc2ccncc2)C1=O)N1CCC(N2Cc3ccccc3NC2=O)CC1 (stereo not drawn) [Example 28, 4-(2-Oxo-1,4-dihydro-2H-quinazolin-3-yl)-piperidine-1-carboxylic acid (8-oxo-9-pyridin-4-ylmethyl-3,6,7,8,9,10-hexahydro-2,3,9-triaza-cyclohepta[e]inden-7-yl)-amide]",10 to 100 nM,10 to 100 nM
"Cc1cc2c(c3cn[nH]c13)CN(C)C(=O)C(NC(=O)N1CCC(N3Cc4ccccc4NC3=O)CC1)C2 (stereo not drawn) [Example 30, 4-(2-Oxo-1,4-dihydro-2H-quinazolin-3-yl)-piperidine-1-carboxylic acid (4,9-dimethyl-8-oxo-3,6,7,8,9,10-hexahydro-2,3,9-triaza-cyclohepta[e]inden-7-yl)-amide]",10 to 100 nM,10 to 100 nM
"O=C(N[C@@H]1Cc2cc3cn[nH]c3cc2CN(Cc2ccccc2)C1=O)N1CCC(N2Cc3ccccc3NC2=O)CC1 [Example 37, (R)-N-(8-Benzyl-7-oxo-1,5,6,7,8,9-hexahydroazepino[4,3-f]indazol-6-yl)-4-(2-oxo-1,2-dihydroquinazolin-3(4H)-yl)piperidine-1-carboxamide]",10 to 100 nM,0.1 to 10 nM
"C=C(C)c1cc2c(c3cn[nH]c13)CN(CC(F)(F)F)C(=O)[C@H](CC(=O)N1CCC(c3cc4ccccc4[nH]c3=O)CC1)C2 [Example 108, (S)-7-(2-oxo-2-(4-(2-oxo-1,2-dihydroquinolin-3-yl)piperidin-1-yl)ethyl)-4-(prop-1-en-2-yl)-9-(2,2,2-trifluoroethyl)-6,7,9,10-tetrahydroazepino[3,4-e]indazol-8(3H)-one]",,10 to 100 nM
"C=C(C)c1cc2c(c3cn[nH]c13)CN(CC(F)(F)F)C(=O)[C@H](CC(=O)N1CCC(c3cc4cccc(F)c4[nH]c3=O)CC1)C2 [Example 109, (S)-7-(2-(4-(8-fluoro-2-oxo-1,2-dihydroquinolin-3-yl)piperidin-1-yl)-2-oxoethyl)-4-(prop-1-en-2-yl)-9-(2,2,2-trifluoroethyl)-6,7,9,10-tetrahydroazepino[3,4-e]indazol-8(3H)-one]",,100 to 1000 nM
"O=C(C[C@@H]1Cc2cc(Br)c3[nH]ncc3c2CN(CC2CC2)C1=O)N1CCC(c2cc3cccc(F)c3[nH]c2=O)CC1 [Example 112, (S)-4-bromo-9-(cyclopropylmethyl)-7-(2-(4-(8-fluoro-2-oxo-1,2-dihydroquinolin-3-yl)piperidin-1-yl)-2-oxoethyl)-6,7,9,10-tetrahydroazepino[3,4-e]indazol-8(3H)-one]",,10 to 100 nM
"COCCN1Cc2c(cc(Br)c3[nH]ncc23)C[C@@H](CC(=O)N2CCC(c3cc4ccccc4[nH]c3=O)CC2)C1=O [Example 113, (S)-4-bromo-9-(2-methoxyethyl)-7-(2-oxo-2-(4-(2-oxo-1,2-dihydroquinolin-3-yl)piperidin-1-yl)ethyl)-6,7,9,10-tetrahydroazepino[3,4-e]indazol-8(3H)-one]",,0.1 to 10 nM
CC(C)(C)CN1Cc2c(cc(Cl)c3[nH]ncc23)C[C@@H](CC(=O)N2CCC(c3cc4ccc(Cl)cc4[nH]c3=O)CC2)C1=O [Example 116],,0.1 to 10 nM
CC(C)(C)CN1Cc2c(cc(Cl)c3[nH]ncc23)C[C@@H](CC(=O)N2CCC(c3cc4cccc(Cl)c4[nH]c3=O)CC2)C1=O [Example 117],,100 to 1000 nM
CC(C)(C)CN1Cc2c(cc(Cl)c3[nH]ncc23)C[C@@H](CC(=O)N2CCC(c3cc4c(F)cccc4[nH]c3=O)CC2)C1=O [Example 118],,10 to 100 nM
CC(C)(C)CN1Cc2c(cc(Cl)c3[nH]ncc23)C[C@@H](CC(=O)N2CCC(c3cc4ccc(F)nc4[nH]c3=O)CC2)C1=O [Example 119],,> 1000 nM
CC(C)(C)CN1Cc2c(cc(Cl)c3[nH]ncc23)C[C@@H](CC(=O)N2CCC(c3cc4ccc(F)cc4[nH]c3=O)CC2)C1=O [Example 120],,0.1 to 10 nM
"(7S)-9-Benzyl-7-(2-oxo-2-(4-(2-oxo-1,2,3,4-tetrahydroquinolin-3-yl)piperazin-1-yl)ethyl)-6,7,9,10-tetrahydroazepino[3,4-e]indazol-8(3H)-one [Example 58]",,100 to 1000 nM
